Several values for one entry are separate records, joined by “and”; a condition that tells them apart may be missing. Equal values may be shown once.
Tested on: NCI-H1876 complex spheroid viability
Assay: Anticancer human tumor NCI-H1876 cell line growth inhibition [LSD1];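 note: spheroids exposed to compounds for one week before readout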;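 for viability, T/C: 100% = DMSO vehicle-treated spheroids so lower means fewer viable cells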
Conditions: for viability, T/C: stronger effect = lower value
Source text: Multicellular complex tumor spheroid response to LSD1 Inhibitor Iadademstat in combination with a variety of drugs and investigational agents in selected tumor cell lines
The current study was undertaken to assess response to LSD1 inhibitors in combination with standard-of-care drugs and investigational agents in solid tumor complex spheroid models as well as in the K-562 leukemia. Complex spheroids include a stromal component modeled by human endothelial cells (HUVEC) and fibroblasts modeled by human mesenchymal stem cells (MSCs). The concentration ranges selected for each drug and investigational agent were based upon clinically achievable concentrations if the clinical Cmax of the agent was known.
Compounds. The drugs and investigational agents used in this study are listed on Table 1. All of the agents used, including staurosporine (NSC755774) and gemcitabine (NSC613327), were obtained from the Developmental Therapeutics Program, NCI. FDA-approved anticancer drugs are available from the NCI at http://dtp.nci.nih.gov/branches/dscb/oncology_drugset_explanation.html. Drugs and investigational agents were >95% pure by proton nuclear magnetic resonance (NMR) and liquid chromatography/mass spectrometry (LC/MS). Stock solutions were prepared at 400x in DMSO, stored at -70 degrees C, and diluted in fresh medium prior to their use. The final concentration of DMSO in cell culture wells never exceeded 0.25% (v/v). The FDA-approved anticancer drug set is available from the Developmental Therapeutics Program at https://dtp.cancer.gov/organization/dscb/obtaining/available_plates.htm. All drugs and investigational agents were tested over a range starting from a high concentration at or near the clinical Cmax and decreasing in half-log increments. If the clinical Cmax for an agent had not been determined, the highest concentration tested was 10 microM.
Cell Lines. The patient-derived cancer cell (PDC) lines: 292921-168-R-J2-PDC, K24384-001-R-PDC, and 521955-158-R2-J5-PDC pancreatic carcinomas, 556581-035-R-J1 ovarian carcinoma, 324938-238-R-J1-PDC, 855422-203-R-J1-PDC and 883617-216-R-J1-PDC urothelial bladder carcinomas, 743489-274-T-PDC renal cell carcinoma, 138582-R-J1 Merkel cell tumor, K60290-347-R-J1 and K57222-313-R-J1-PDC glioblastomas, 653999-131-R-J2-PDC, LG0703-F948-PDC, and 349418-098-R-PDC non-small cell lung carcinomas, 885512-296-R-J2-PDC, 171881-019-R-J1-PDC breast carcinomas and 186277-243-T-J2-PDC and 233499-124-R-J2-PDC colon carcinomas were obtained from the NCI Patient-Derived Models Repository (PDMR, https://pdmr.cancer.gov). The established cell lines NCI/ADR-RES (RRID:CVCL_14520 and OVCAR-5 (RRID:CVCL_1628) ovarian carcinomas, 786-O (RRID:CVCL_1051) and A498 (RRID:CVCL_A498) renal cell carcinoma, NCI-H211 (ATCC, cat. CRL-5824; RRID:CVCL_1529), NCI-H196 (ATCC, cat. CRL-5823, RRID:CVCL_1509), SW 1271 (ATCC, cat. CRL-2177, RRID:CVCL_1716) and NCI-H1876 (ATCC, cat. CRL-5902, RRID:CVCL_1503) small cell lung carcinomas, MDA-MB-231 (RRID:CVCL_0062) and MDA-MB-468 (RRID:CVCL_0419)breast carcinomas (10-12). Pooled donor human umbilical vein endothelial cells (HUVEC, Lonza, cat. CC-2519) and human mesenchymal stem cells (hMSC, Lonza, cat. PT-2501) were purchased from Lonza (Walkersville, MD).
Cell Culture. All cells were maintained in an incubator at 37 degrees C and 5% CO2 with 95% humidity. The PDC lines were cultured according to standard operating procedures established by the NCI PDMR (https://pdmr.cancer.gov). Briefly all PDCs were thawed and cultured in Matrigel-coated flasks prepared with a working solution of 1X Ham's F-12 nutrient mix, without supplementation (Invitrogen, Waltham, MA, cat. 11765054), 100 U/mL penicillin-streptomycin (Invitrogen, cat. 15140122), and 2.5% Matrigel (Corning Inc., Corning, NY, cat. 354248) for the first three passages. […]

SMILES	IC50 (curve of compound)	viability, T/C (compound 0.0316 µM)	viability, T/C (compound 0.1 µM)	viability, T/C (compound 0.316 µM)	viability, T/C (compound 1 µM)	viability, T/C (compound 0.00949 µM)	viability, T/C (compound 0.03 µM)	viability, T/C (compound 0.0949 µM)	viability, T/C (compound 0.3 µM)	other results
COc1ccc([C@@H](O)c2cc(-c3ncnc4cc(N5CCOCC5)ccc34)c(F)cc2Cl)nn1	4340 nM and 2150 nM	93.6% and 98%	101% and 97.7%	91.2% and 85.7%	84.5% and 68.1%	–	–	–	–	viability, T/C (compound 3.16 µM): 59.4% and 41.1%; viability, T/C (compound 10 µM): 25.1% and 10.8%
Cn1ncnc1C1c2n[nH]c(=O)c3cc(F)cc(c23)NC1c1ccc(F)cc1 (configuration not stated)	> 100 nM	94.9% and 93.5%	93.8% and 79.9%	–	–	–	–	–	–	viability, T/C (compound 0.000316 µM): 100% and 104%; viability, T/C (compound 0.001 µM): 95% and 107%; viability, T/C (compound 0.00316 µM): 107% and 100%; viability, T/C (compound 0.01 µM): 107% and 100%
NC1CC1c1ccc(-c2cccc(O)c2)cc1 (configuration not stated)	–	–	94%	–	–	–	–	–	–	IC50 (compound alone, run of 02/21/2022): > 10000 nM
NC1CCC(NC2CC2c2ccccc2)CC1 (configuration not stated)	–	–	–	98.5% and 109%	102% [middle of 25 runs]	–	–	–	–	viability, T/C (compound 3.16 µM): 102% [middle of 25 runs]; viability, T/C (compound 10 µM): 103% [middle of 23 runs]; IC50 (compound alone, run of 02/15/2022): > 10000 nM
Nc1ccccc1NC(=O)c1ccc(CNC(=O)OCc2cccnc2)cc1	176 nM and 77.3 nM	–	–	–	–	103% and 93.5%	97.7% and 77.7%	79.1% and 44.3%	24.9% and 14%	viability, T/C (compound 0.949 µM): 10.3% and 4.22%; viability, T/C (compound 3 µM): 8.9% and 0.64%
O=C(C=Cc1cccc(S(=O)(=O)Nc2ccccc2)c1)NO	176 nM and 156 nM	–	–	–	–	101% and 104%	98.9% and 104%	75.1% and 73.1%	27.6% and 19.1%	viability, T/C (compound 0.949 µM): 9.32% and 8.04%; viability, T/C (compound 3 µM): 2.33% and 0.42%
O=C(C=Cn1cnc(-c2cc(C(F)(F)F)cc(C(F)(F)F)c2)n1)NNc1cnccn1	94.9 nM and 79.1 nM	84.4% and 80%	47.8% and 42%	23.1% and 16.6%	16.3% and 9.98%	–	–	–	–	viability, T/C (compound 0.00316 µM): 99.2% and 92.7%; viability, T/C (compound 0.01 µM): 91% and 89.3%
O=C(c1cc(Cc2n[nH]c(=O)c3ccccc23)ccc1F)N1CCN(C(=O)C2CC2)CC1	5540 nM and 6100 nM	99.1% and 93.9%	96% and 96.3%	91.3% and 97.4%	85.9% and 91.3%	–	–	–	–	viability, T/C (compound 3.16 µM): 65.4% and 68.3%; viability, T/C (compound 10 µM): 33.4% and 36.2%

Second part, led by results:

IC50 (curve of compound)	SMILES	viability, T/C (compound 0.0316 µM)	viability, T/C (compound 0.1 µM)	viability, T/C (compound 0.316 µM)	viability, T/C (compound 1 µM)	viability, T/C (compound 0.00949 µM)	viability, T/C (compound 0.03 µM)	viability, T/C (compound 0.0949 µM)	viability, T/C (compound 0.3 µM)	other results
165 nM and 150 nM	NS(=O)(=O)OCC1CC(n2ccc3c(NC4CCc5ccccc54)ncnc32)CC1O (configuration not stated)	–	–	–	–	84.9% and 85.4%	66.2% and 63.6%	56.7% and 51.4%	43.3% and 49.8%	viability, T/C (compound 0.949 µM): 39% and 40.2%; viability, T/C (compound 3 µM): 32.8% and 39%
3.7 nM and 5.87 nM	Nc1ccn(C2OC(CO)C(O)C2(F)F)c(=O)n1 (configuration not stated)	–	–	–	–	29.2% and 23.5%	23.6% and 9.68%	11.3% and 8.77%	10.5% and 7.09%	viability, T/C (compound 0.000949 µM): 98.6% and 98.7%; viability, T/C (compound 0.003 µM): 53.8% and 86.9%
> 1000 nM	Nc1ncn(C2CC(O)C(CO)O2)c(=O)n1 (configuration not stated)	102% and 103%	97.4% and 97%	86.7% and 106%	86% and 83.6%	–	–	–	–	viability, T/C (compound 0.00316 µM): 97.2% and 101%; viability, T/C (compound 0.01 µM): 96.9% and 105%
> 300 nM	Nc1ncn(C2CC(O)C(CO)S2)c(=O)n1 (configuration not stated)	–	–	–	–	100% and 95.5%	81.2% and 81.3%	83.2% and 71.1%	59.5% and 50.1%	viability, T/C (compound 0.000949 µM): 105% and 97.8%; viability, T/C (compound 0.003 µM): 96.8% and 99.5%

Reference: PubChem BioAssay AID1918957 (Molecular Pharmacology Branch, DTP, NCI, 2023)
